One data set has as its system KB. Kind of data set: Cytotoxicity in human KB cells assessed as reduction in cell viability. It counts as functional, cell-based.
A further data set relates to Bel-7402. Kind of data set: Antiproliferative activity against human Bel7402 cells incubated for 48 hrs by MTT assay. It counts as functional. The following applies: Bel-7402, 48 h. (In general: Formazan colour is commonly taken as a measure of viable cells.)
For data set [1], the system named is A549. Nature of the data set: Antiproliferative activity against human A549 cells incubated for 48 hrs by MTT assay. It counts as functional, cell-based. The conditions noted are these: A549, 48 h.
In data set [2] the test system is K562. Nature of the data set: Antiproliferative activity against human K562 cells incubated for 48 hrs by MTT assay. It counts as functional. The following applies: K562, 48 h.
Data set [3] relates to HeLa. Kind of data set: Antiproliferative activity against human HeLa cells incubated for 48 hrs by MTT assay. It counts as functional, cell-based.
Data set [4] has as its system PC-3. Nature of the data set: Antiproliferative activity against human PC3 cells incubated for 48 hrs by MTT assay. It counts as functional. The following applies: PC-3, 48 h.
Data set [5] relates to HeLa. Nature of the data set: Antiproliferative activity against human HeLa cells incubated for 24 hrs by MTT assay. It counts as functional, cell-based.
The test system of data set [6] is A549. Kind of data set: Antiproliferative activity against human A549 cells incubated for 24 hrs by MTT assay. Type of data set: functional, cell-based. The conditions noted are these: A549, 24 h.
Data set [7] relates to MCF7. Kind of data set: Antiproliferative activity against human MCF7 cells incubated for 24 hrs by MTT assay. Type of data set: functional, cell-based. The following applies: MCF7, 24 h.
Data set [8] has as its system MCF7. Kind of data set: Antiproliferative activity against human MCF7 cells incubated for 48 hrs by MTT assay. It counts as functional, cell-based. The following applies: MCF7, 48 h.
The subject of a further data set is HCT-116. Nature of the data set: Antiproliferative activity against human HCT116 cells incubated for 48 hrs by MTT assay. It counts as functional, cell-based. The conditions noted are these: HCT-116, 48 h.
For data set [9], the system named is A549. Nature of the data set: Cytotoxicity in human A549 cells assessed a reduction in cell viability incubated for 48 hrs by MTT assay. It counts as functional, cell-based. The conditions noted are these: A549, 48 h.
Data set [10] concerns A549. Kind of data set: Cytotoxicity in human A549 cells assessed as reduction in cell viability incubated for 48 hrs by MTT assay. It counts as functional, cell-based. The following applies: A549, 48 h.
The next data set has as its system U-87 MG. Kind of data set: Cytotoxicity in human U87MG cells assessed as reduction in cell viability incubated for 48 hrs by MTT assay. It counts as functional, cell-based, U-87MG ATCC.
In data set [11] the test system is PC-3. Kind of data set: Cytotoxicity in human PC3 cells assessed as reduction in cell viability incubated for 48 hrs by MTT assay. The following applies: PC-3, 48 h. It counts as functional, cell-based.
The test system of data set [12] is HT-29. Kind of data set: Cytotoxicity in human HT-29 cells assessed as reduction in cell viability incubated for 48 hrs by MTT assay. Type of data set: functional, cell-based. The following applies: HT-29, 48 h.
The test system of another data set is A498. Nature of the data set: Growth inhibition of human A498 cells at 10 uM. Type of data set: functional. The following applies: read-out: GI.
In data set [13] the test system is MDA-MB-231. Nature of the data set: Growth inhibition of human MDA-MB-231 cells at 10 uM. The conditions noted are these: read-out: GI. Type of data set: functional.
Data set [14] has as its system HEK293. Kind of data set: Cytotoxicity in HEK293 cells at 100 uM by MTT assay. It counts as cell-based. The following applies: human, hek293, 100 µM.
The test system of another data set is SK-OV-3. Nature of the data set: Antiproliferative activity against human SKOV3 cells incubated for 48 hrs by MTT assay. The conditions noted are these: SK-OV-3, 48 h. It counts as functional, cell-based.
Data set [15] concerns MDA-MB-231. Nature of the data set: Antiproliferative activity against human MDA-MB-231 cells incubated for 48 hrs by MTT assay. It counts as functional, cell-based. The conditions noted are these: MDA-MB-231, 48 h.
The next data set relates to HUVEC. Nature of the data set: Antiproliferative activity against human HUVEC cells incubated for 48 hrs by MTT assay. Type of data set: functional, cell-based.
A further data set concerns DU-145. Kind of data set: Antiproliferative activity against human DU145 cells incubated for 48 hrs by MTT assay. Type of data set: functional, cell-based. The conditions noted are these: DU-145, 48 h.
Data set [16] concerns HEK293. Nature of the data set: Antiproliferative activity against HEK293 cells incubated for 48 hrs by MTT assay. It counts as cell-based. The conditions noted are these: Homo sapiens, HEK293, 48 h.
For data set [17], the system named is HT-29. Kind of data set: Antiproliferative activity against human HT-29 cells incubated for 48 hrs by MTT assay. It counts as functional, cell-based. The conditions noted are these: HT-29, 48 h.
For data set [18], the system named is K562. Kind of data set: Cytotoxicity in human K562 cells assessed as reduction in cell viability incubated for 48 to 72 hrs by trypan blue dye exclusion assay. Type of data set: functional, cell-based.
The next data set deals with REH. Kind of data set: Cytotoxicity in human REH cells assessed as reduction in cell viability incubated for 48 to 72 hrs by trypan blue dye exclusion assay. It counts as functional, cell-based.
The test system of another data set is B16-F10. Nature of the data set: Antiproliferative activity against mouse B16F10 cells incubated for 48 hrs by MTT assay. Type of data set: functional, cell-based. The following applies: B16-F10, 48 h.
Data set [19] concerns the target Epidermal growth factor receptor (Homo sapiens, UniProt P00533). Nature of the data set: Inhibition of 6x-His-tagged human EGFR cytoplasmic domain (645 to 1186 amino acids) assessed as reduction in autophosphorylation pre-incubated for 10 mins and measured after 1 hr by DELFIA/time-resolved fluorometry.
The test system of data set [20] is MCF7. Kind of data set: Cytotoxicity in human MCF7 cells assessed as reduction in cell viability incubated for 48 hrs by MTT assay. It counts as functional, cell-based. The conditions noted are these: MCF7, 48 h.

Converted amounts (≈) assume the structure as drawn.

Sequence of Epidermal growth factor receptor (P00533 whole entry, the tested form may be a part): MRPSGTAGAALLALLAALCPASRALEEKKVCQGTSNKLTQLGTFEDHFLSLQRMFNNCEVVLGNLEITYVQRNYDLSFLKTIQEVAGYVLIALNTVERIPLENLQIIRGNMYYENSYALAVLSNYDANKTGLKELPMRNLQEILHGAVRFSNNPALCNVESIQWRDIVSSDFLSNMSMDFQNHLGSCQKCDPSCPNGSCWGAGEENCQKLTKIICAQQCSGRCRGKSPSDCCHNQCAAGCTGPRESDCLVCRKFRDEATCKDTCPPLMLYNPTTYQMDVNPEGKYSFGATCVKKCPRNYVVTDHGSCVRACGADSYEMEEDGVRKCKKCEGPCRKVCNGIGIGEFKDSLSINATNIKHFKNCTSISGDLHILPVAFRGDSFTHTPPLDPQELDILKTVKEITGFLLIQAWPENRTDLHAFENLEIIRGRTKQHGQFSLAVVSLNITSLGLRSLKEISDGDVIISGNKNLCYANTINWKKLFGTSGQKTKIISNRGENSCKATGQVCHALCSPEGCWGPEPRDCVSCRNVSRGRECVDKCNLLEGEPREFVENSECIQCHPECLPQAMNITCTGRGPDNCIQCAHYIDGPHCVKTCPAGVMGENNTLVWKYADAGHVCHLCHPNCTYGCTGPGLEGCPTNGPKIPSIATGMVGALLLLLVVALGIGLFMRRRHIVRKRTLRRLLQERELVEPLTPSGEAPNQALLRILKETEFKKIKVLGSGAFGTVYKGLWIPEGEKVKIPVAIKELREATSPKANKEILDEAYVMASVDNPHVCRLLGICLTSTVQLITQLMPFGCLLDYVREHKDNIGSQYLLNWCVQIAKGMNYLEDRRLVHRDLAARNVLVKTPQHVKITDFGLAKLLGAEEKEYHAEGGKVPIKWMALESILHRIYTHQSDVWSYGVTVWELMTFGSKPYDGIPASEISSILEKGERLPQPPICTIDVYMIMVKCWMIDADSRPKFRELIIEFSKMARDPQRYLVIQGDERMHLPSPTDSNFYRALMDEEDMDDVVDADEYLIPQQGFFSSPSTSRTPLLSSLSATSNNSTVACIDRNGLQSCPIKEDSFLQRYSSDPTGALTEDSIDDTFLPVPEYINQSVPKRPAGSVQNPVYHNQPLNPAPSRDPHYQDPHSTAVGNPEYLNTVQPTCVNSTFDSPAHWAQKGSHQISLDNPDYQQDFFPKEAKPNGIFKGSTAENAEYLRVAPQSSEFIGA

In general, IC50 refers to the concentration that gives 50% inhibition. As for `O=C(/C=C/c1ccc(/C=C/C(=O)c2cccc3c2C(=O)c2ccccc2C3=O)cc1)c1ccccc1`, in the data set with KB, the IC50 amounted to 0.66 mg/L (≈ 1.41 µM).

What is called GI50 is the concentration that inhibits growth by half. For the compound `COc1cc2c(c(OC)c1OC)C/C(=C\c1cccc3[nH]ccc13)C2=O`, the concentration for 50% growth inhibition (GI50) in the data set on Bel-7402, in the data set with A549 [1], with K562 [2], in the data set on HeLa [3] and in the data set on PC-3 [4] was 0.026 to 0.035 µM in each case.

With `COc1ccc(Cc2nnc(COc3ncnc4ccccc34)o2)cc1OC`, the IC50 was found to be 0.32 µM in the data set with HeLa [5], 0.38 µM in the data set on A549 [6] and 0.23 µM in the data set with MCF7 [7].

In the case of `COc1ccc(N/C=C/C(=O)c2cccnc2Nc2cc(OC)c(OC)c(OC)c2)cc1`, the IC50 in the data set on A549 [1], in the data set with MCF7 [8], in the data set on HCT-116 and with HeLa [3] was 0.51 to 1.29 µM throughout.

On to `COc1ccc(C(=O)/C=C/c2cc3c([nH]c4ccccc43)c(-c3ccc(OC)c(OC)c3)n2)cc1`, for which the IC50 in the data set on A549 [9] was below 10 µM.

For the compound `COc1cc(-c2nc(/C=C/C(=O)c3cc(OC)c(OC)c(OC)c3)cc3c2[nH]c2ccccc23)ccc1F`, in the data set on A549 [9], the IC50 was below 10 µM.

With `COc1ccc(Cn2cc(C(=O)c3cn(-c4ccccc4)nc3-c3ccc(Cl)cc3)nn2)cc1OC`, the IC50 in the data set with A549 [10] is 1.93 µM; in the data set with U-87 MG, 0.86 µM; in the data set on PC-3 [11] it was 3.71 µM; in the data set with HT-29 [12] it was 2.42 µM.

Take `COc1ccc(-c2nc(/C=C/C(=O)c3ccc([N+](=O)[O-])cc3)cc3c2[nH]c2ccccc23)cc1OC`: the IC50 with A549 [9] was below 10 µM.

Compound `COc1ccc(C(=O)/C=C/c2cc3c([nH]c4ccccc43)c(-c3ccc(F)cc3)n2)cc1` returned an IC50 with A549 [9] below 10 µM.

Turning to `COc1ccc(-c2cn3c(-c4ccc(OC)cc4)cnc3c(Oc3ccc4c(C)cc(=O)oc4c3)n2)cc1`, the inhibition of growth at 10 µM in the data set on A498 is 90%; in the data set on MDA-MB-231 [13], 93%. The compound further returned an Activity in the data set on HEK293 [14] of 17%.

`CC12CCC(OC(=O)CCC(=O)OCCOc3no[n+]([O-])c3S(=O)(=O)c3ccccc3)CC1=CCC1C2CCC2(C)c3c(cnn3-c3ccccc3)CC12` (stereo not given): the IC50 in the data set on SK-OV-3 came out at 0.0034 µM; with MDA-MB-231 [15] it was 0.0014 µM; with HUVEC it was 0.0035 µM; with DU-145 it was 0.02 µM.

For `Nc1ccc(C(=O)/C=C/c2cc3c([nH]c4ccccc43)c(-c3ccc(F)cc3)n2)cc1`, in the data set on A549 [9], the IC50 was below 10 µM.

For the compound `O=C(c1cn(Cc2cccc(Oc3ccccc3)c2)nn1)c1cccnc1Nc1ccc(F)cc1`, the IC50 was 59.6 µM in the data set on HEK293 [16], 1.1 µM in the data set on A549 [1], 0.2 µM in the data set on HT-29 [17] and 0.1 µM with DU-145.

For `COc1cc(C(=O)N/N=C2\C(=O)Nc3ccc(C)cc32)cc(OC)c1OC`, the IC50 came to 2 µM in the data set on K562 [18] and 0.5 µM with REH.

`COc1cc(-c2nc(/C=C/C(=O)c3ccc([N+](=O)[O-])cc3)cc3c2[nH]c2ccccc23)ccc1F` returned an IC50 with A549 [9] below 10 µM.

As to `O=C1CSC(N2N=C(c3ccncc3)CC2c2ccc(Br)cc2)=N1` (stereo not given), the IC50 with B16-F10 turned out to be 0.09 µM; in the data set on MCF7 [8], 0.56 µM; in data set [19], 0.009 µM; in the data set on HeLa [3], 0.29 µM.

On to `COc1ccc(C(=O)/C=C/c2cc3c([nH]c4ccccc43)c(-c3ccc(F)c(OC)c3)n2)cc1`, for which the 50% inhibitory concentration (IC50) in the data set with A549 [9] was below 10 µM.

Regarding `COc1cc(-c2nc(/C=C/C(=O)c3ccc(N)cc3)cc3c2[nH]c2ccccc23)cc(OC)c1OC`, in the data set on A549 [9], the IC50 was below 10 µM.

Regarding `O=Cc1c(-c2cc3cc(Br)ccc3oc2=O)[nH]c2ccccc12`, in the data set with MCF7 [20], the half-inhibitory concentration (IC50) was found to be 7.4 µM.

With `COc1cc(-c2nc(/C=C/C(=O)c3ccc([N+](=O)[O-])cc3)cc3c2[nH]c2ccccc23)cc(OC)c1OC`, the IC50 in the data set on A549 [9] was below 10 µM.

In the data set on A549 [9], `COc1cc(C(=O)/C=C/c2cc3c([nH]c4ccccc43)c(-c3ccc(F)cc3)n2)cc(OC)c1OC` yielded an IC50 below 10 µM.

The values are drawn from ChEMBL document CHEMBL4270497, “Recent advances (2015-2016) in anticancer hybrids” (Eur J Med Chem, 2017).
